Active and inactive are the calls of the source. How the calls were made is not given here.
Tested on: CCRIS mutagenicity, Ames/micronucleus/aberration tests
Experiment: CCRIS mutagenicity studies
[1] = Test System: AMES SALMONELLA TYPHIMURIUM, Strain/Indicator: TA98, Metabolic Activation: RAT, LIVER, S-9, AROCLOR 1254, Method: STANDARD PLATE
[2] = Test System: AMES SALMONELLA TYPHIMURIUM, Strain/Indicator: TA100, Metabolic Activation: NONE, Method: PREINCUBATION
[3] = Test System: AMES SALMONELLA TYPHIMURIUM, Strain/Indicator: TA100, Metabolic Activation: RAT, LIVER, S-9, AROCLOR 1254, Method: STANDARD PLATE
[4] = Test System: AMES SALMONELLA TYPHIMURIUM, Strain/Indicator: TA98, Metabolic Activation: NONE, Method: STANDARD PLATE
[5] = Test System: AMES SALMONELLA TYPHIMURIUM, Strain/Indicator: TA100, Metabolic Activation: NONE, Method: STANDARD PLATE
[6] = Test System: AMES SALMONELLA TYPHIMURIUM, Strain/Indicator: TA1535, Metabolic Activation: NONE, Method: STANDARD PLATE
[7] = Test System: AMES SALMONELLA TYPHIMURIUM, Strain/Indicator: TA1535, Metabolic Activation: RAT, LIVER, S-9, AROCLOR 1254, Method: STANDARD PLATE
[8] = Test System: AMES SALMONELLA TYPHIMURIUM, Strain/Indicator: TA1537, Metabolic Activation: NONE, Method: STANDARD PLATE
[9] = Test System: AMES SALMONELLA TYPHIMURIUM, Strain/Indicator: TA1537, Metabolic Activation: RAT, LIVER, S-9, AROCLOR 1254, Method: STANDARD PLATE
[10] = Test System: AMES SALMONELLA TYPHIMURIUM, Strain/Indicator: TA98, Metabolic Activation: NONE, Method: PREINCUBATION
[11] = Test System: AMES SALMONELLA TYPHIMURIUM, Strain/Indicator: TA1535, Metabolic Activation: NONE, Method: PREINCUBATION
[12] = Test System: AMES SALMONELLA TYPHIMURIUM, Strain/Indicator: TA1537, Metabolic Activation: NONE, Method: PREINCUBATION

For Cc1nc2ccc3ccc4ccc(O)cc4c3c2o1, the mutagenic call [1] was “active; positive” and the mutagenic call (Test System: AMES SALMONELLA TYPHIMURIUM, Strain/Indicator: TA98, Metabolic Activation: RAT, LIVER, S-9, AROCLOR, Method: STANDARD PLATE) was “active; positive”.

In the case of Cc1ccc(NO)cc1C, the mutagenic call [2] was “active; positive” and the mutagenic call (Test System: AMES SALMONELLA TYPHIMURIUM, Strain/Indicator: TA100, Metabolic Activation: RAT, LIVER, S-9, PCB, Method: PREINCUBATION) was “active; positive”.

With O=c1c(=O)c2cc3ccccc3c3ccc4cccc1c4c23 the mutagenic call [3] was “active; positive”.

For Cc1ccc(C(C)(C)C)c(O)c1C(O)c1ncc([N+](=O)[O-])n1C (configuration not stated), the mutagenic call [4] was “inactive; negative”, the mutagenic call (Test System: AMES SALMONELLA TYPHIMURIUM, Strain/Indicator: TA 98, Metabolic Activation: RAT, LIVER, S-9, AROCLOR 1254, Method: STANDARD PLATE) was “inactive; negative” and the mutagenic call [5] was “inactive; negative”. The mutagenic call [3] was “inactive; negative”, the mutagenic call [6] was “inactive; negative” and the mutagenic call [7] was “inactive; negative”. For the same compound, the mutagenic call [8] was “inactive; negative”, the mutagenic call [9] was “inactive; negative” and the mutagenic call (Test System: AMES SALMONELLA TYPHIMURIUM, Strain/Indicator: TA1538, Metabolic Activation: NONE, Method: STANDARD PLATE) was “inactive; negative”. The mutagenic call (Test System: AMES SALMONELLA TYPHIMURIUM, Strain/Indicator: TA1538, Metabolic Activation: RAT, LIVER, S-9, AROCLOR 1254, Method: STANDARD PLATE) was “inactive; negative”.

CC(C)(C)NC[C@H](O)COc1ccc(O)cc1C1CCCC1 was tested, and the mutagenic call [4] was “inactive; negative” and the mutagenic call [1] was “inactive; negative”.

In the case of O=C(O)/C=C(/CC(=O)O)C(=O)O, the mutagenic call [4] was “inactive; negative”, the mutagenic call [1] was “inactive; negative” and the mutagenic call [5] was “inactive; negative”. The mutagenic call [3] was “inactive; negative”, the mutagenic call [6] was “inactive; negative” and the mutagenic call [7] was “inactive; negative”. The mutagenic call [8] was “inactive; negative” and the mutagenic call [9] was “inactive; negative”.

For Cc1c(F)c(N2CCNC(C)C2)cc2c1c(=O)c(C(=O)O)cn2C1CC1 (configuration not stated), the mutagenic call [10] was “inactive; negative”, the mutagenic call (Test System: AMES SALMONELLA TYPHIMURIUM, Strain/Indicator: TA98, Metabolic Activation: RAT, LIVER, S-9, PHENOBARBITAL AND 5,6-BENZOFLAVONE, Method: PREINCUBATION) was “inactive; negative” and the mutagenic call [2] was “inactive; negative”. For the same compound, the mutagenic call (Test System: AMES SALMONELLA TYPHIMURIUM, Strain/Indicator: TA100, Metabolic Activation: RAT, LIVER, S-9, PHENOBARBITAL AND 5,6-BENZOFLAVONE, Method: PREINCUBATION) was “inactive; negative”, the mutagenic call [11] was “inactive; negative” and the mutagenic call (Test System: AMES SALMONELLA TYPHIMURIUM, Strain/Indicator: TA1535, Metabolic Activation: RAT, LIVER, S-9, PHENOBARBITAL AND 5,6-BENZOFLAVONE, Method: PREINCUBATION) was “inactive; negative”. For the same compound, the mutagenic call [12] was “inactive; negative”, the mutagenic call (Test System: AMES SALMONELLA TYPHIMURIUM, Strain/Indicator: TA1537, Metabolic Activation: RAT, LIVER, S-9, PHENOBARBITAL AND 5,6-BENZOFLAVONE, Method: PREINCUBATION) was “inactive; negative” and the mutagenic call (Test System: CHINESE HAMSTER V-79, Strain/Indicator: V-79 (HGPRT)/6-THIOGUANINE, Metabolic Activation: NONE) was “inactive; negative”. For the same compound, the mutagenic call (Test System: CHINESE HAMSTER V-79, Strain/Indicator: V-79 (HGPRT)/6-THIOGUANINE, Metabolic Activation: RAT, LIVER, S-9, PHENOBARBITAL AND 5,6-BENZOFLAVONE) was “inactive; negative”, the mutagenic call (Test System: E. COLI, Strain/Indicator: WP2 UVRA, Metabolic Activation: NONE, Method: PREINCUBATION) was “inactive; negative” and the mutagenic call (Test System: E. COLI, Strain/Indicator: WP2 UVRA, Metabolic Activation: RAT, LIVER, S-9, PHENOBARBITAL AND 5,6-BENZOFLAVONE, Method: PREINCUBATION) was “inactive; negative”.

With O=[N+]([O-])c1cc(Cl)ccc1Cl the mutagenic call (End Point: IN VITRO CHROMOSOMAL ABERRATIONS, Test System: CHL CELLS, Metabolic Activation: RAT, LIVER, S-9, SODIUM PHENOBARBITAL AND 5,6-BENZOFLAVONE) was “active; positive (structural changes); authors report equivocal results for ploidy chang”, the mutagenic call [10] was “inactive; negative” and the mutagenic call (Test System: AMES SALMONELLA TYPHIMURIUM, Strain/Indicator: TA98, Metabolic Activation: RAT LIVER S-9, PHENOBARBITAL AND BETA-NAPHTHOFLAVONE, Method: PREINCUBATION) was “inactive; negative”. For the same compound, the mutagenic call (Test System: AMES SALMONELLA TYPHIMURIUM, Strain/Indicator: TA98, Metabolic Activation: RAT, LIVER, S-9, KANECHLOR 500, Method: PREINCUBATION) was “inactive; negative”, the mutagenic call [5] was “inactive; negative” and the mutagenic call (Test System: AMES SALMONELLA TYPHIMURIUM, Strain/Indicator: TA100, Metabolic Activation: RAT LIVER S-9, PHENOBARBITAL AND BETA-NAPHTHOFLAVONE, Method: PREINCUBATION) was “active; positive”. The mutagenic call (Test System: AMES SALMONELLA TYPHIMURIUM, Strain/Indicator: TA100, Metabolic Activation: RAT, LIVER, S-9, KANECHLOR 500, Method: PREINCUBATION) was “active; positive”, the mutagenic call [11] was “inactive; negative” and the mutagenic call (Test System: AMES SALMONELLA TYPHIMURIUM, Strain/Indicator: TA1535, Metabolic Activation: RAT LIVER S-9, PHENOBARBITAL AND BETA-NAPHTHOFLAVONE, Method: PREINCUBATION) was “inactive; negative”. For the same compound, the mutagenic call [12] was “inactive; negative”, the mutagenic call (Test System: AMES SALMONELLA TYPHIMURIUM, Strain/Indicator: TA1537, Metabolic Activation: RAT LIVER S-9, PHENOBARBITAL AND BETA-NAPHTHOFLAVONE, Method: PREINCUBATION) was “inactive; negative” and the mutagenic call (Test System: AMES SALMONELLA TYPHIMURIUM, Strain/Indicator: TA1538, Metabolic Activation: NONE, Method: PREINCUBATION) was “inactive; negative”. For the same compound, the mutagenic call (Test System: AMES SALMONELLA TYPHIMURIUM, Strain/Indicator: TA1538, Metabolic Activation: RAT LIVER S-9, PHENOBARBITAL AND BETA-NAPHTHOFLAVONE, Method: PREINCUBATION) was “inactive; negative”, the mutagenic call (Test System: E.COLI, Strain/Indicator: WP2UVRA, Metabolic Activation: NONE, Method: PREINCUBATION) was “inactive; negative” and the mutagenic call (Test System: E.COLI, Strain/Indicator: WP2UVRA, Metabolic Activation: RAT LIVER S-9, PHENOBARBITAL AND BETA-NAPHTHOFLAVONE, Method: PREINCUBATION) was “inactive; negative”.

From PubChem BioAssay AID1259407 (Chemical Carcinogenesis Research Information System (CCRIS), 2018)
